{"source": "ChEMBL document CHEMBL1154575", "about": "“Bioactive 12-oleanene triterpene and secotriterpene acids from Maytenus undata” (J Nat Prod, 2000)", "key": {"Pseudomonas aeruginosa": {"test_system": "Pseudomonas aeruginosa", "experiment": "Antibacterial activity against Pseudomonas aeruginosa ATCC 15442 after 48 hrs by agar dilution method", "format": "functional", "settings": "ATCC 15442, 48 h"}, "[1]": {"experiment": "Antiinflammatory activity in rat neonatal brain microglia cells assessed as effect on phorbol-12-myristate-13-acetate-stimulated superoxide release", "format": "functional, cell-based"}, "[2]": {"experiment": "Antiinflammatory activity in rat neonatal brain microglia cells assessed as effect on phorbol-12-myristate-13-acetate-stimulated thromboxane B2 release", "format": "functional, cell-based"}, "[3]": {"experiment": "Toxicity against rat neonatal brain microglia cells assessed as phorbol-12-myristate-13-acetate-stimulated LDH release", "format": "cell-based"}, "Staphylococcus aureus [4]": {"test_system": "Staphylococcus aureus", "experiment": "Antibacterial activity against Staphylococcus aureus ATCC 6535 after 48 hrs by agar dilution method", "format": "functional", "settings": "ATCC 6535, 48 h"}, "Staphylococcus aureus [5]": {"test_system": "Staphylococcus aureus", "experiment": "Antibacterial activity against methicillin-resistant Staphylococcus aureus ATCC 33591 after 48 hrs by agar dilution method", "format": "functional", "settings": "ATCC 33591, 48 h"}}, "data": [{"smiles": "CC1(C)C(=O)CC[C@]2(C)[C@H]3[C@H](O)C=C4[C@@H]5C[C@@](C)(C(=O)O)CC[C@]5(C)CC[C@@]4(C)[C@]3(C)CC[C@@H]12", "values": [{"measurement": "MIC", "setting": "Pseudomonas aeruginosa", "value": "> 6.26", "unit": "µg/mL"}, {"measurement": "IC50", "setting": "[1]", "value": 3.2, "unit": "µM"}, {"measurement": "IC50", "setting": "[2]", "value": 3.6, "unit": "µM"}, {"measurement": "IC50", "setting": "[3]", "value": "> 1", "unit": "µM"}, {"measurement": "MIC", "setting": "Staphylococcus aureus [4]", "value": "> 6.25", "unit": "µg/mL"}, {"measurement": "MIC", "setting": "Staphylococcus aureus [5]", "value": "> 6.25", "unit": "µg/mL"}]}, {"smiles": "CC1(C)C(=O)CC[C@]2(C)[C@H]3C(=O)C=C4[C@@H]5C[C@@](C)(C(=O)O)CC[C@]5(C)CC[C@@]4(C)[C@]3(C)CC[C@@H]12", "values": [{"measurement": "IC50", "setting": "[1]", "value": 6.7, "unit": "µM"}, {"measurement": "IC50", "setting": "[2]", "value": 2.3, "unit": "µM"}, {"measurement": "IC50", "setting": "[3]", "value": "> 10", "unit": "µM"}]}, {"smiles": "C=C(C)[C@@H]1CC[C@]2(C)[C@H](CC=C3[C@@H]4C[C@](C)(C(=O)O)CC[C@]4(C)CC[C@]32C)[C@@]1(C)CCC(=O)O", "values": [{"measurement": "MIC", "setting": "Pseudomonas aeruginosa", "value": 6.25, "unit": "µg/mL"}, {"measurement": "IC50", "setting": "[1]", "value": 1.9, "unit": "µM"}, {"measurement": "IC50", "setting": "[2]", "value": 0.5, "unit": "µM"}, {"measurement": "IC50", "setting": "[3]", "value": "> 1", "unit": "µM"}, {"measurement": "MIC", "setting": "Staphylococcus aureus [4]", "value": "> 3.25", "unit": "µg/mL"}, {"measurement": "MIC", "setting": "Staphylococcus aureus [5]", "value": "> 6.25", "unit": "µg/mL"}]}, {"smiles": "CO[C@@H]1C=C2[C@@H]3C[C@@](C)(C(=O)O)CC[C@]3(C)CC[C@@]2(C)[C@]2(C)CC[C@H]3C(C)(C)C(=O)CC[C@]3(C)[C@@H]12", "values": [{"measurement": "MIC", "setting": "Pseudomonas aeruginosa", "value": 10, "unit": "µg/mL"}, {"measurement": "IC50", "setting": "[1]", "value": 15, "unit": "µM"}, {"measurement": "IC50", "setting": "[2]", "value": 5, "unit": "µM"}, {"measurement": "IC50", "setting": "[3]", "value": "> 30", "unit": "µM"}, {"measurement": "MIC", "setting": "Staphylococcus aureus [4]", "value": "> 10", "unit": "µg/mL"}, {"measurement": "MIC", "setting": "Staphylococcus aureus [5]", "value": "> 10", "unit": "µg/mL"}]}, {"smiles": "CC1(C)C(=O)CC[C@]2(C)C3=CC=C4[C@@H]5C[C@@](C)(C(=O)O)CC[C@]5(C)CC[C@@]4(C)[C@]3(C)CC[C@@H]12", "values": [{"measurement": "MIC", "setting": "Pseudomonas aeruginosa", "value": 6.25, "unit": "µg/mL"}, {"measurement": "IC50", "setting": "[1]", "value": "> 100", "unit": "µM"}, {"measurement": "IC50", "setting": "[2]", "value": "> 100", "unit": "µM"}, {"measurement": "IC50", "setting": "[3]", "value": "> 30", "unit": "µM"}, {"measurement": "MIC", "setting": "Staphylococcus aureus [4]", "value": "> 50", "unit": "µg/mL"}, {"measurement": "MIC", "setting": "Staphylococcus aureus [5]", "value": "> 50", "unit": "µg/mL"}]}, {"smiles": "C=C(C)[C@@H]1CC[C@]2(C)[C@H](CC=C3[C@@H]4C[C@@](C)(C(=O)O)CC[C@]4(C)CC[C@]32C)[C@@]1(C)CCC(=O)O", "note": "[KOETJAPIC ACID]", "values": [{"measurement": "MIC", "setting": "Pseudomonas aeruginosa", "value": 6.25, "unit": "µg/mL"}, {"measurement": "MIC", "setting": "Staphylococcus aureus [4]", "value": "> 6.25", "unit": "µg/mL"}, {"measurement": "MIC", "setting": "Staphylococcus aureus [5]", "value": 12.5, "unit": "µg/mL"}]}, {"smiles": "CCO[C@@H]1C=C2[C@@H]3C[C@@](C)(C(=O)O)CC[C@]3(C)CC[C@@]2(C)[C@]2(C)CC[C@H]3C(C)(C)C(=O)CC[C@]3(C)[C@@H]12", "values": [{"measurement": "MIC", "setting": "Pseudomonas aeruginosa", "value": 12.5, "unit": "µg/mL"}, {"measurement": "MIC", "setting": "Staphylococcus aureus [4]", "value": "> 12.5", "unit": "µg/mL"}, {"measurement": "MIC", "setting": "Staphylococcus aureus [5]", "value": 50, "unit": "µg/mL"}]}]}
